Laboratory results taken from US12528816B2, “Substituted imidazo [1,2-b] pyridazines and [1, 2, 4] triazolo [ 4,3-b] pyridazines as camkii inhibitors” (Cardurion Pharmaceuticals, INC., priority 2020, dated 2026).

What follows are molecules tested against T1, human CaMKIIδ (Homo sapiens, UniProt Q13557) (assay: Evaluation of in vitro CaMKII inhibitory activity (binding assay, TR-FRET)). Conditions: human CaMKIIδ, TR-FRET binding assay; class symbols A/B/C; read-out: Act (CaMKII inhibitory activity, binding assay).
T1 construct: Full-length, glutathione-S-transferase(GST)-tagged, human CaMKIIδ was purchased from Carna Biosciences; purchased Carna Biosciences (CaMKIIδ); Wako Pure Chemical Industries (calmodulin) 02-111
How it was run: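 Inhibitors, in eight concentrations of 4-fold dilution, were incubated 1 h at room temperature with a protein–fluorescent probe premix preformed 30 min on ice, containing calmodulin and terbium anti-GST antibody. Displacement read by TR-FRET in duplicate; IC50 by logistic fitting.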
Molecule `C[C@@H](Cn1cnnn1)Oc1cc(-c2ccn3ncc(-c4ccccc4F)c3n2)ccc1F` [compound 52] has an IC50 of less than 10 nM.
`CC(C)c1ccc(-c2cnn3ccc(-c4ccc(F)c(O[C@@H](C)Cn5cnnn5)c4)nc23)cc1` [compound 53] showed an IC50 greater than 100 nM.
`C[C@@H](Cn1cnnn1)Oc1cc(-c2ccn3ncc(-c4cccc(OCC5CC5)c4)c3n2)ccc1F` [compound 54] showed an IC50 of 10 to 100 nM.
With `C[C@@H](Cn1cnnn1)Oc1cc(-c2ccn3ncc(-c4ccccc4N4CCNCC4)c3n2)ccc1F` [compound 55] the IC50 was greater than 100 nM.
In the case of `C[C@@H](Cn1cnnn1)Oc1cc(-c2ccn3ncc(-c4ccc(N5CCNCC5)cc4)c3n2)ccc1F` [compound 56], the IC50 is reported as less than 10 nM.
In the case of `C[C@@H](Cn1nnc(N)n1)Oc1cccc(-c2ccn3ncc(-c4cccs4)c3n2)c1` [compound 58], the IC50 is reported as greater than 100 nM.
Work on `C[C@@H](Cn1nnnc1N)Oc1cccc(-c2ccn3ncc(-c4cccs4)c3n2)c1` [compound 59] yielded an IC50 of less than 10 nM.
For `C[C@@H](Cn1cnnn1)Oc1cc(-c2ccc3ncc(-c4cccs4)n3n2)ccc1F` [compound 60], the IC50 was less than 10 nM.
`C[C@@H](Cn1cnnn1)Oc1cc(-c2ccc3ncn(-c4cccc(C(=O)O)c4)c3n2)ccc1F` [compound 62] was tested, and the IC50 was 10 to 100 nM.
Molecule `C[C@@H](Cn1cnnn1)Oc1cccc(-c2ccn3ncc(-c4cccc(C(=O)NCC5CC5)c4)c3n2)c1` [compound 63] has an IC50 of less than 10 nM.
`CC(C)CCNC(=O)c1cccc(-c2cnn3ccc(-c4cccc(O[C@@H](C)Cn5cnnn5)c4)nc23)c1` [compound 64] showed an IC50 of less than 10 nM.
With `C[C@@H](Cn1cnnn1)Oc1cccc(-c2ccn3ncc(-c4cccc(C(=O)Nc5cn[nH]c5)c4)c3n2)c1` [compound 65] the IC50 was less than 10 nM.
With `C[C@@H](Cn1cnnn1)Oc1cccc(-c2ccn3ncc(-c4cccc(C(=O)NCCCN5CC(O)C5)c4)c3n2)c1` [compound 66] the IC50 was less than 10 nM.
`C[C@@H](Cn1cnnn1)Oc1cccc(-c2ccn3ncc(-c4cccc(C(=O)NCCN5CCOCC5)c4)c3n2)c1` [compound 67] gave an IC50 of less than 10 nM.
For `CCN(CC)C(=O)CNC(=O)c1cccc(-c2cnn3ccc(-c4cccc(O[C@@H](C)Cn5cnnn5)c4)nc23)c1` [compound 68], the IC50 was less than 10 nM.
`CCN(CC)CCCNC(=O)c1cccc(-c2cnn3ccc(-c4cccc(O[C@@H](C)Cn5cnnn5)c4)nc23)c1` [compound 69] was tested, and the IC50 was less than 10 nM.
`C[C@@H](Cn1cnnn1)Oc1cccc(-c2ccn3ncc(-c4cccc(C(=O)NC5CN(C)C5)c4)c3n2)c1` [compound 70] showed an IC50 of less than 10 nM.
With `C[C@@H](Cn1cnnn1)Oc1cccc(-c2ccn3ncc(-c4cccc(C(=O)N5CCOCC5)c4)c3n2)c1` [compound 71] the IC50 was 10 to 100 nM.
For `C[C@@H](Cn1cnnn1)Oc1cccc(-c2ccn3ncc(-c4cccc(C(=O)NCC(C)(C)C)c4)c3n2)c1` [compound 72], the IC50 was less than 10 nM.
Work on `CC(=O)NC1CCN(C(=O)c2cccc(-c3cnn4ccc(-c5cccc(O[C@@H](C)Cn6cnnn6)c5)nc34)c2)CC1` [compound 73] yielded an IC50 of 10 to 100 nM.
Molecule `C[C@@H](Cn1cnnn1)Oc1cccc(-c2ccn3ncc(-c4cccc(C(=O)NCCCN5CCCC5=O)c4)c3n2)c1` [compound 74] has an IC50 of less than 10 nM.
With `CC(=O)N1CCC(NC(=O)c2cccc(-c3cnn4ccc(-c5cccc(O[C@@H](C)Cn6cnnn6)c5)nc34)c2)CC1` [compound 75] the IC50 was less than 10 nM.
`C[C@@H](Cn1cnnn1)Oc1cccc(-c2ccn3ncc(-c4cccc(C(=O)NCCC5CCN(C)CC5)c4)c3n2)c1` [compound 76] showed an IC50 of less than 10 nM.
Molecule `CNC(=O)CNC(=O)c1cccc(-c2cnn3ccc(-c4cccc(O[C@@H](C)Cn5cnnn5)c4)nc23)c1` [compound 77] has an IC50 of less than 10 nM.
Molecule `C[C@@H](Cn1cnnn1)Oc1cccc(-c2ccn3ncc(-c4cccc(C(=O)NCCCN5CCOCC5)c4)c3n2)c1` [compound 78] has an IC50 of less than 10 nM.
In the case of `C[C@@H](Cn1cnnn1)Oc1cccc(-c2ccn3ncc(-c4cccc(C(=O)NCCCCO)c4)c3n2)c1` [compound 79], the IC50 is reported as less than 10 nM.
With `C[C@@H](Cn1cnnn1)Oc1cccc(-c2ccn3ncc(-c4cccc(C(=O)NCC(C)(C)O)c4)c3n2)c1` [compound 80] the IC50 was less than 10 nM.
Work on `C[C@@H](Cn1cnnn1)Oc1cccc(-c2ccn3ncc(-c4cccc(C(=O)Nc5ccccc5)c4)c3n2)c1` [compound 81] yielded an IC50 of 10 to 100 nM.
Work on `C[C@@H](Cn1cnnn1)Oc1cccc(-c2ccn3ncc(-c4cccc(C(=O)Nc5ccncc5)c4)c3n2)c1` [compound 82] yielded an IC50 of less than 10 nM.
For `C[C@@H](Cn1cnnn1)Oc1cccc(-c2ccn3ncc(-c4cccc(C(=O)Nc5ccccn5)c4)c3n2)c1` [compound 83], the IC50 was less than 10 nM.
For `C[C@@H](Cn1cnnn1)Oc1cccc(-c2ccn3ncc(-c4cccc(C(=O)Nc5cccnc5)c4)c3n2)c1` [compound 84], the IC50 was less than 10 nM.
`C[C@@H](Cn1cnnn1)Oc1cccc(-c2ccn3ncc(-c4cccc(C(=O)Nc5cnn(C)c5)c4)c3n2)c1` [compound 85] gave an IC50 of less than 10 nM.
With `C[C@@H](Cn1cnnn1)Oc1cccc(-c2ccn3ncc(-c4cccc(C(=O)NC5CN(Cc6ccccc6)C5)c4)c3n2)c1` [compound 86] the IC50 was less than 10 nM.
For `C[C@@H](Cn1cnnn1)Oc1cccc(-c2ccn3ncc(-c4cccc(C(=O)NCCN5CCS(=O)(=O)CC5)c4)c3n2)c1` [compound 87], the IC50 was less than 10 nM.
`C[C@@H](Cn1cnnn1)Oc1cccc(-c2ccn3ncc(-c4cccc(C(=O)NC5CCN(C)C5)c4)c3n2)c1` (stereo partly drawn) [compound 88] showed an IC50 of less than 10 nM.
`C[C@@H](Cn1cnnn1)Oc1cccc(-c2ccn3ncc(-c4cccc(C(=O)N5CCC(O)CC5)c4)c3n2)c1` [compound 89] showed an IC50 of 10 to 100 nM.
Work on `CC(=O)NCCNC(=O)c1cccc(-c2cnn3ccc(-c4cccc(O[C@@H](C)Cn5cnnn5)c4)nc23)c1` [compound 90] yielded an IC50 of less than 10 nM.
In the case of `C[C@@H](Cn1cnnn1)Oc1cccc(-c2ccn3ncc(-c4cccc(C(=O)NCc5ccccc5)c4)c3n2)c1` [compound 91], the IC50 is reported as less than 10 nM.
Molecule `C[C@@H](Cn1cnnn1)Oc1cccc(-c2ccn3ncc(-c4cccc(C(=O)NCc5ccccn5)c4)c3n2)c1` [compound 92] has an IC50 of less than 10 nM.
In the case of `C[C@@H](Cn1cnnn1)Oc1cccc(-c2ccn3ncc(-c4cccc(C(=O)NCc5ccncc5)c4)c3n2)c1` [compound 93], the IC50 is reported as less than 10 nM.
`C[C@@H](Cn1cnnn1)Oc1cccc(-c2ccn3ncc(-c4cccc(C(=O)NCc5cccnc5)c4)c3n2)c1` [compound 94] showed an IC50 of less than 10 nM.
`C[C@@H](Cn1cnnn1)Oc1cccc(-c2ccn3ncc(-c4cccc(C(=O)NCCn5ccnc5)c4)c3n2)c1` [compound 95] gave an IC50 of less than 10 nM.
`C[C@@H](Cn1cnnn1)Oc1cccc(-c2ccn3ncc(-c4cccc(C(=O)NCCn5cncn5)c4)c3n2)c1` [compound 96] showed an IC50 of less than 10 nM.
With `C[C@@H](Cn1cnnn1)Oc1cccc(-c2ccn3ncc(-c4cccc(C(=O)NC5CC(=O)N(C)C5)c4)c3n2)c1` (stereo partly drawn) [compound 97, N-(1-methyl-5-oxopyrrolidin-3-yl)-3-[5-(3-{[(2S)-1-(1H-tetrazol-1-yl)propan-2-yl]oxy}phenyl)pyrazolo[1,5-a]pyrimidin-3-yl]benzamide] the IC50 was less than 10 nM.
Molecule `C[C@@H](Cn1cnnn1)Oc1cccc(-c2ccn3ncc(-c4cccc(C(=O)NC5CCN(C)CC5)c4)c3n2)c1` [compound 98] has an IC50 of less than 10 nM.
With `C[C@@H](Cn1cnnn1)Oc1cccc(-c2ccn3ncc(-c4cccc(C(=O)N5CCC(C)(O)CC5)c4)c3n2)c1` [compound 99] the IC50 was 10 to 100 nM.
For `C[C@@H](Cn1cnnn1)Oc1cccc(-c2ccn3ncc(-c4cccc(C(=O)NCC5CCOCC5)c4)c3n2)c1` [compound 100], the IC50 was less than 10 nM.
Molecule `COC1CCN(C(=O)c2cccc(-c3cnn4ccc(-c5cccc(O[C@@H](C)Cn6cnnn6)c5)nc34)c2)CC1` [compound 101] has an IC50 of 10 to 100 nM.
